Experimental findings from ChEMBL document CHEMBL1141466, “Potent memapsin 2 (beta-secretase) inhibitors: design, synthesis, protein-ligand X-ray structure, and in vivo evaluation” (Bioorg Med Chem Lett, 2008) are described below.

In assay [1] the target is T1, Beta-secretase 1 (Homo sapiens, UniProt P56817).
Description: Binding affinity to recombinant memapsin 2
Assay [2] has as its target T1, Beta-secretase 1. This is another data set of the same source.
Description: Inhibition of memapsin 2 expressed in CHO cells

T1 sequence (P56817 whole entry): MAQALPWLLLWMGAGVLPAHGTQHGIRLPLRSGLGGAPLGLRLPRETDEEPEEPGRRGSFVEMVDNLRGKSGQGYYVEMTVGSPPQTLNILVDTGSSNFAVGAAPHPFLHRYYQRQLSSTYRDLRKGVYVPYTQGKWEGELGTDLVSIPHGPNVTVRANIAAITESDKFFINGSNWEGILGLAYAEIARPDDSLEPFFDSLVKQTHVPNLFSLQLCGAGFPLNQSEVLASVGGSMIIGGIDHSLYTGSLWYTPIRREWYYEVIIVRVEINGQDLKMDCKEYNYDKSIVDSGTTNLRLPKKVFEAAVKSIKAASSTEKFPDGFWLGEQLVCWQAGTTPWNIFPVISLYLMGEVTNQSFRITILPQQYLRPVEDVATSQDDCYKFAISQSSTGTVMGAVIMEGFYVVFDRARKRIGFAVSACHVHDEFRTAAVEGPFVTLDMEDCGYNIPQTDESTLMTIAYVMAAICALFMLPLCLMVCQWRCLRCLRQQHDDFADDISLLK

Broadly, the Ki is a dissociation constant, usually derived from enzyme kinetics or from competition with a known ligand. On to `CC(C)NC(=O)[C@@H](NC[C@@H](O)[C@H](Cc1ccccc1)NC(=O)c1cc(C(=O)N[C@H](C)c2ccccc2)cc(N(C)S(C)(=O)=O)c1)C(C)C`, for which the inhibitory constant (Ki) in assay [1] is 564 nM.
The same measure, in the same setting: then `COc1cccc(CNC[C@@H](O)[C@H](Cc2ccccc2)NC(=O)[C@H](CS(C)(=O)=O)NC(=O)OCc2nc(C)oc2C)c1`, with 15000 nM.
As usually defined, the IC50 is the concentration needed to halve the response being measured. Turning to `CC(C)NC[C@@H](O)[C@H](Cc1ccccc1)NC(=O)c1cc(C(=O)N[C@H](C)c2ccccc2)cc(N(C)S(C)(=O)=O)c1`, in assay [2], the IC50 came to 1100 nM. Moreover, the affinity in assay [1] corresponds to a Ki of 425 nM.
In assay [2], `C[C@@H](NC(=O)c1cc(C(=O)N[C@@H](Cc2ccccc2)[C@H](O)CNCc2ccc3cc[nH]c3c2)cc(N(C)S(C)(=O)=O)c1)c1ccccc1` registered a half-inhibitory concentration (IC50) of 620 nM. In assay [1], this molecule gave a Ki of 230 nM.
Molecule `C[C@@H](NC(=O)c1cc(C(=O)N[C@@H](Cc2ccccc2)[C@H](O)CNCc2ccc3ccn(S(C)(=O)=O)c3c2)cc(N(C)S(C)(=O)=O)c1)c1ccccc1` came in with an IC50 in assay [2] of 200 nM. The Ki in assay [1] is 27 nM.
Molecule `COc1cccc(CNC[C@@H](O)[C@H](CC(C)C)NC(=O)c2cc(C(=O)N[C@H](C)c3ccccc3)cc(N(C)S(C)(=O)=O)c2)c1` had an inhibitory constant (Ki) in assay [1] of 916 nM.
`Cc1nc(COC(=O)N[C@@H](CS(C)(=O)=O)C(=O)N[C@@H](CC(C)C)[C@@H](O)C[C@@H](C)C(=O)N[C@H](C(=O)NC(C)(C)C)C(C)C)c(C)o1` showed a Ki in assay [1] of 0.12 nM.
`COc1cccc(CNC[C@@H](O)[C@H](Cc2ccccc2)NC(=O)c2cc(C(=O)NCc3nc(C)oc3C)cc(N(C)S(C)(=O)=O)c2)c1` came in with a Ki in assay [1] of 552 nM.
For the molecule `COc1cccc(CNC[C@@H](O)[C@H](Cc2ccccc2)NC(=O)c2cc(C(=O)NC(C)c3nc(C)oc3C)cc(N(C)S(C)(=O)=O)c2)c1` (some centres not stated), the Ki in assay [1] was found to be 894 nM.
